Experimental data: patent US20230157996A1, “SMALL-MOLECULE INHIBITOR TARGETING EB VIRUS NUCLEAR ANTIGEN PROTEIN, PREPARATION METHOD AND USE THEREOF” (priority 2020, published 2023)

tested on: C666-1 cells; assay: C666-1 cell viability single concentration (50 μM) inhibition rate (Resazurin); type: cell-based; conditions: 50 μM compound, 72 hours, C666-1 cells
In short: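 Resazurin fluorescence (560/590 nm, 3 h development) gave the proliferation inhibition rate, normalised to DMSO-treated and cell-free blank wells. Compound was tested at a single 50 μmol/L final concentration on C666-1 cells for 72 h at 37° C, with duplicate wells, after 24 h seeding.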

| SMILES | C666-1 cell viability single concentration (50 μM) inhibition rate, Ratio* (Inh %) |
| --- | --- |
| COC(=O)c1cccc(N2CC(Oc3ccccc3)C2)c1-n1cccc1 [Example 257, Methyl 3-((3-phenoxy)azetidin-1-yl)-2-(1H-pyrrol-1-yl)benzoate] | ++ (10%-30% ++) |

same assay, conditions: Homo sapiens, C6661, 72 h, 50 μM compound, 72 hours, C666-1 cells; read-out: C666-1 cell viability single concentration (50 μM) inhibition rate, Ratio* (Inh %)

| SMILES | inhibition at 50 µM [%] |
| --- | --- |
| COC(=O)c1cccc(N2CC(Oc3ccc(COc4cccc(F)c4)cc3)C2)c1-n1cccc1 [Example 247, Methyl 3-(3-(4-((3-fluorophenoxy)methyl)phenoxy)azetidin-1-yl)-2-(1H-pyrrol-1-yl)benzoate] | 10 to 30 |
| O=C(O)c1cccc(N2CC(Oc3ccc(COc4cccc(F)c4)cc3)C2)c1-n1cccc1 [Example 248, 3-(3-(4-((3-fluorophenoxy)methyl)phenoxy)azetidin-1-yl)-2-(1H-pyrrol-1-yl)benzoic acid] | < 10 |
| COC(=O)c1cccc(N2CC(Oc3ccc(COc4cccc(C(F)(F)F)c4)cc3)C2)c1-n1cccc1 [Example 249, Methyl 3-(3-(4-((3-(trifluoromethyl)phenoxy)methyl)phenoxy)azetidin-1-yl)-2-(1H-pyrrol-1-yl)benzoate] | < 10 |
| O=C(O)c1cccc(N2CC(Oc3ccc(COc4cccc(C(F)(F)F)c4)cc3)C2)c1-n1cccc1 [Example 250, 3-(3-(4-((3-(trifluoromethyl)phenoxy)methyl)phenoxy)azetidin-1-yl)-2-(1H-pyrrol-1-yl)benzoic acid] | 10 to 30 |
| COC(=O)c1cccc(N2CC(Oc3ccc(CO)c(C)c3)C2)c1-n1cccc1 [Example 251, Methyl 3-(3-(4-(hydroxymethyl)-3-methylphenoxy)azetidin-1-yl)-2-(1H-pyrrol-1-yl)benzoate] | > 50 |
| Cc1cc(OC2CN(c3cccc(C(=O)O)c3-n3cccc3)C2)ccc1CO [Example 252, 3-(3-(4-(hydroxymethyl)-3-methylphenoxy)azetidin-1-yl)-2-(1H-pyrrol-1-yl)benzoic acid] | < 10 |
| COC(=O)c1cccc(N2CC(Oc3ccc(N)cc3)C2)c1-n1cccc1 [Example 253, Methyl 3-(3-(4-aminophenoxy)azetidin-1-yl)-2-(1H-pyrrol-1-yl)benzoate] | 10 to 30 |
| Nc1ccc(OC2CN(c3cccc(C(=O)O)c3-n3cccc3)C2)cc1 [Example 254, 3-(3-(4-aminophenoxy)azetidin-1-yl)-2-(1H-pyrrol-1-yl)benzoic acid] | < 10 |
| COC(=O)c1cccc(N2CC(Oc3ccccc3N)C2)c1-n1cccc1 [Example 255, Methyl 3-(3-(2-aminophenoxy)azetidin-1-yl)-2-(1H-pyrrol-1-yl)benzoate] | > 50 |
| Nc1ccccc1OC1CN(c2cccc(C(=O)O)c2-n2cccc2)C1 [Example 256, 3-(3-(2-aminophenoxy)azetidin-1-yl)-2-(1H-pyrrol-1-yl)benzoic acid] | > 50 |
| COC(=O)c1cccc(N2CC(Oc3cccnc3)C2)c1-n1cccc1 [Example 259, Methyl 3-(3-(pyridin-3-yloxy)azetidin-1-yl)-2-(1H-pyrrol-1-yl)benzoate] | 10 to 30 |
| O=C(O)c1cccc(N2CC(Oc3cccnc3)C2)c1-n1cccc1 [Example 260, 3-(3-(pyridin-3-yloxy)azetidin-1-yl)-2-(1H-pyrrol-1-yl)benzoic acid] | < 10 |
| COC(=O)c1cccc(N2CC(Oc3ccc(-c4csc(NS(C)(=O)=O)n4)cc3)C2)c1-n1cccc1 [Example 261, Methyl 3-(3-(4-(2-(methylsulfonamido)thiazol-4-yl)phenoxy)azetidin-1-yl)-2-(1H-pyrrol-1-yl)benzoate] | < 10 |
| CS(=O)(=O)Nc1nc(-c2ccc(OC3CN(c4cccc(C(=O)O)c4-n4cccc4)C3)cc2)cs1 [Example 262, 3-(3-(4-(2-(methylsulfonamido)thiazol-4-yl)phenoxy)azetidin-1-yl)-2-(1H-pyrrol-1-yl)benzoic acid] | < 10 |
| COC(=O)c1cccc(N2CC(Oc3ccc(C(=O)N4CCOCC4)cc3)C2)c1-n1cccc1 [Example 265, Methyl 3-(3-(4-(morpholinyl-4-carbonyl)phenoxy)azetidin-1-yl)-2-(1H-pyrrol-1-yl)benzoate] | 10 to 30 |
| COC(=O)c1cccc(N2CC(Oc3ccc(C(=O)Nc4ccc(F)cc4)cc3)C2)c1-n1cccc1 [Example 267, Methyl 3-(3-(4-((4-fluorophenyl)carbamoyl)phenoxy)azetidin-1-yl)-2-(1H-pyrrol-1-yl)benzoate] | < 10 |

| SMILES | inhibition at 50 µM [%] |
| --- | --- |
| O=C(Nc1ccc(F)cc1)c1ccc(OC2CN(c3cccc(C(=O)O)c3-n3cccc3)C2)cc1 [Example 268, 3-(3-(4-((4-fluorophenyl)carbamoyl)phenoxy)azetidin-1-yl)-2-(1H-pyrrol-1-yl)benzoic acid] | < 10 |
| COC(=O)c1cccc(-c2cn(-c3ccc(CO)cc3)nn2)c1-c1ccc2cc[nH]c2c1 [Example 269, Methyl 3-(1-(4-(hydroxymethyl)phenyl)-1H-1,2,3-triazol-4-yl)-2-(1H-indol-6-yl)benzoate] | 30 to 50 |
| COC(=O)c1cccc(C#CN2Cc3ccccc3S2(=O)=O)c1-n1cccc1 [Example 270] | < 10 |
| COC(=O)c1cccc(C#CN(Cc2ccccc2)S(=O)(=O)c2ccc(C)cc2)c1-n1cccc1 [Example 271, Methyl 3-(((N-benzyl-4-methylphenyl)sulfonamido)ethynyl)-2-(1H-pyrrol-1-yl)benzoate] | > 50 |
| COC(=O)c1cccc(C2CC2c2ccccc2)c1-n1cccc1 (centres unmarked) [Example 272, Methyl 3-(2-phenylcyclopropyl)-2-(1H-pyrrol-1-yl)benzoate] | 10 to 30 |
| COc1ccc(C(O)C23CC(c4cccc(C(=O)O)c4)(C2)C3)cc1 (centres unmarked) [Example 273, 3-(3-(hydroxyl(4-methoxyphenyl)methyl)bicyclo[1. 1.1]pentan-1-yl)benzoic acid] | < 10 |
| COC(=O)c1cccc(N2CC3(CN(c4ccccc4)C3)C2)c1-n1cccc1 [Example 274, Methyl 3-(6-phenyl-2,6-diazaspiro[3.3]heptan-2-yl)-2-(1H-pyrrol-1-yl)benzoate] | < 10 |
| COC(=O)c1cccc(N2CC3(CN(c4ccccc4N)C3)C2)c1N [Example 275, Methyl 2-amino-3-(6-(2-aminophenyl)-2,6-diazaspiro[3.3]heptan-2-yl)benzoate] | 10 to 30 |
| O=C(O)c1cccc(N2CC(Oc3ccc(CO)cc3)C2)c1-c1ccco1 [Example 276] | < 10 |
| COC(=O)c1cccc(N2CC(Oc3ccc(CO)cc3)C2)c1-c1ccc2ccoc2c1 [Example 277] | 10 to 30 |
| N#Cc1cccc(-c2c(C(=O)O)cccc2N2CC(Oc3ccc(CO)cc3)C2)c1 [Example 278] | 10 to 30 |
| COC(=O)c1cccc(N2CC(Oc3ccc(CO)cc3)C2)c1-c1cccc(C(=O)O)c1 [Example 279] | 10 to 30 |
| CS(=O)(=O)Nc1cccc(-c2c(C(=O)O)cccc2N2CC(Oc3ccc(CO)cc3)C2)c1 [Example 280] | < 10 |
| N#Cc1cc(-c2c(C(=O)O)cccc2N2CC(Oc3ccc(CO)cc3)C2)ccc1F [Example 281, 3′-cyano-4′-fluoro-6-(3-(4-(hydroxymethyl)phenoxy)azetidin-1-yl)-[1,1′-biphenyl]-2-formic acid] | < 10 |
| COC(=O)c1cccc(N2CC(Oc3cccc(C(=O)O)c3)C2)c1N [Example 282, Methyl 2-amino-3-(3-(3-carboxylphenoxy)azetidin-1-yl)benzoate] | < 10 |
